{"source": "patent US20060188507A1", "about": "“Methods for identifying chemotherapeutic resistance in non-hematopoietic tumors” (priority 2005, published 2006)", "format_in_all_cases": "cell-based, human", "key": {"MCF7/AR cells": {"test_system": "MCF7/AR cells", "experiment": "Reversal of ADR resistance by p16 siRNA (SITp16 and SART), MCF7/AR cells", "protocol": "The cells are allowed to attach to the plate overnight and then the media is replaced with media containing an different concentrations of ADR (0 nM, 10 nM, 20 nM, 50 nM, 100 nM, 400 nM, 500 nM, 1 μM, 5 μM, and 10 μM) and the cells are then incubated at 37° C. for 4 days. […] The colonies are the counted and the results expressed as the level of ADR resistance in nM (e.g., ≦400 nM), or EC50, in which 50% of the cells were still alive.\nThe relative effect of siRNA treatment on reversing ADR sensitivity of MCF7/AR cells and on p16 gene expression was assessed using the SITp16 and SART assays in the presence or absence of ADR drug treatment of the cells."}, "p16 protein": {"test_system": "p16 protein", "experiment": "SITp16 immunoblot of p16 protein after siRNA transfection, MDA/AR cells", "protocol": "(§1) Next, the cell lines were subjected to a Standardized Immunoblot Test for expression of p16 Protein (“SITp16”). For this test, total cell protein lysates (also called extracts) were prepared according to standard methods (all reagents were from Sigma Chemical Co, St. Louis, Mo.). Briefly, cultured cells were rinsed 2 times with 15 mL PBS and incubated in 15 mL of Cell Dissociation Buffer (available from Sigma Chemical Co, St. Louis, Mo.) at 37° C. for approximately 10 minutes (i.e., or until they detached from the flask). Cells were collected in a 15 mL tube and centrifuged for 5 minutes at room temperature (RT) at 1,000 rpm (800×g). The supernatant was discarded and cells were washed 3 times with PBS at RT. The cell pellet was transferred to a microtube and 500 μL of PBS was added. The cells were centrifuged 5 minutes at 3,000 rpm in an Eppendorf Microfuge. The supernatant was removed by decanting and the pelleted cells were lysed in 50-150 μL of lysis buffer (50 mM NaCl, 50 mM Tris, pH 8 and 4% CHAPS), containing 1 μg/mL each of the proteases inhibitors pepstatin, leupeptin, and benzamidine, and 0.2 mM PMSF), and incubated 5 minutes on ice. The cell lysates were then sonicated with a Vibracell sonicator set at amplitude 40 setting #25 for 3 times 10 seconds with 1 minute incubations on ice between sonications, and stored at −80° C.\n(§2) The protein concentration of each lysate was determined using the RC DC protein assay kit, according to the manufacturer's instructions (BioRad Laboratories, Hercules, Calif., USA; see also Lowry et al., J. Biol. Chem. 193: 265-275, 1951).\nTotal cell lysates were thawed, and 100 μg of protein (completed to 50 μL with nanopure water) were mixed with 10 μL of 5× electrophoresis buffer (60 mM Tris/HCl pH 6.8, 25% glycerol, 2% SDS, 14.4 mM β-mercaptoethanol, 0.1 % bromophenol blue) and the samples were heated at 100° C. for 5 minutes and loaded onto 10% SDS-PAGE gels. Resolved proteins were electrophoretically transferred onto nitrocellulose membranes (Hybond, Amercham Pharmacia Biotech) for 2 hours. After blocking the membranes with 5% non-fat milk in PBS overnight at 4° C., primary and secondary antibody incubations were in the same buffer at room temperature for 2 hour and 1 hour, respectively. The HRP substrate used was Supersignal West Pico Chemiluminescent Substrate (Pierce, Rockford, Ill., USA). Monoclonal antibody against p16INK4a (Ab-4, clone JC2) was purchased from Neomarkers (Fremont, Calif., USA) and used at 1:× dilution. […]\nExperiments were next done comparing the ability of the mutated p16^INK4a siRNA described above (p16mut) with wild-type p16 siRNA. […] P16 protein levels were assessed 48 hours post-transfection using the SITp16 test. […]"}, "p16^INK4a protein": {"test_system": "p16^INK4a protein", "experiment": "SITp16 immunoblot of p16 protein after siRNA transfection, MCF7/AR cells", "settings": "for decrease in p16 protein level relative to cells transfected with GFP siRNA: MCF7/AR", "protocol": "as §1, §2\nTotal cell lysates were thawed, and 100 μg of protein (completed to 50 μL with nanopure water) were mixed with 10 μL of 5× electrophoresis buffer (60 mM Tris/HCl pH 6.8, 25% glycerol, 2% SDS, 14.4 mM β-mercaptoethanol, 0.1 % bromophenol blue) and the samples were heated at 100° C. for 5 minutes and loaded onto 10% SDS-PAGE gels. Resolved proteins were electrophoretically transferred onto nitrocellulose membranes (Hybond, Amercham Pharmacia Biotech) for 2 hours. After blocking the membranes with 5% non-fat milk in PBS overnight at 4° C., primary and secondary antibody incubations were in the same buffer at room temperature for 2 hour and 1 hour, respectively. The HRP substrate used was Supersignal West Pico Chemiluminescent Substrate (Pierce, Rockford, Ill., USA). Monoclonal antibody against p16INK4a (Ab-4, clone JC2) was purchased from Neomarkers (Fremont, Calif., USA) and used at 1:× dilution. Control antibodies included anti-pan-actin (Neomarkers: Ab-5, clone ACTN05, C4) and/or anti-bcl-2 monoclonal antibody (NeoMarkers, Ab-1, Clone 10).\nFor an siRNA transfection, 1 nmole of the annealed siRNA duplex (the siRNA were provided annealed from the manufacturer Dharmacon Inc., Lafayette, Colo.) was mixed in a tube with 1.4 mL of Opti-MEM reagent (commercially available from InVitrogen Corp., Carlsbad, Calif.). In another tube, 85 μL of Oligofectamine reagent (commercially available from InVitrogen) was mixed with 600 μL of Opti-MEM. The two solutions were combined, mixed gently by inversion and incubated for 20 minutes at room temperature (i.e., 25° C.). The resulting solution was added to the cultured cells drop-wise in a 10 cm dish having approximately 40-50% confluent cells.\nThe expression levels of p16 protein and mRNA were quantified using the SITp16 and mRLp16 assays as described above. The SITp16 immunoblots were stripped and reblotted with control anti-actin and anti-bcl-2 antibodies as described above, in order to standardize for total protein levels in each sample.\nTwo different ADR-resistant tumor cell lines (HeLa, […]; MCF7/AR, breast) were transfected with the two different siRNA duplexes, and p16 gene expression levels were evaluated using the SITp16 test, immunoblotting with the p16^INK4a-specific monoclonal antibody, α-p16INK4a (Ab-4, clone 16P04, JC2; Neomarkers)."}}}
{"substance": "p16 siRNA I: siRNA duplex to p16INK4a Exon 1a; sense 5′ CAACGCACCGAAUAGUUACtt 3′, antisense 5′ GUAACUAUUCGGUGCGUUGtt 3′ (sense CAACGCACCGAAUAGUUACTT; antisense GUAACUAUUCGGUGCGUUGTT; chemistry not given here)", "values": [{"measurement": "effect on ADR drug sensitivity/resistance", "setting": "MCF7/AR cells", "value": "reversed ADR drug sensitivity"}, {"measurement": "reduction in p16 protein expression compared to gfp siRNA transfected cells", "setting": "p16 protein; 48 hours post-transfection (FIG. 18A)", "value": 79, "unit": "%"}, {"measurement": "reduction in p16 protein levels compared to p16 mut siRNA or gfp siRNA transfected cells", "setting": "p16 protein; transfected 2 days previously (FIG. 18B)", "value": 92, "unit": "%"}, {"measurement": "reduction in p16 protein levels compared to p16 mut siRNA or gfp siRNA transfected cells", "setting": "p16 protein; transfected 4 days previously (FIG. 18B)", "value": 87, "unit": "%"}, {"measurement": "decrease in p16 protein level relative to cells transfected with GFP siRNA", "setting": "p16^INK4a protein; 48 hours post-transfection", "value": 80, "unit": "%"}, {"measurement": "decrease in p16 protein level relative to cells transfected with GFP siRNA", "setting": "p16^INK4a protein; 72 hours post-transfection", "value": 94, "unit": "%"}, {"measurement": "decrease in p16 protein level relative to cells transfected with GFP siRNA", "setting": "p16^INK4a protein; 96 hours after transfection", "value": 99, "unit": "%"}, {"measurement": "decrease in p16 protein levels as compared to cells transfected with gfp siRNA or p16mut siRNA", "setting": "p16^INK4a protein; MCF-7/AR, transfected 48 hours earlier (FIG. 19A)", "value": 60, "unit": "%"}, {"measurement": "persistence of reduction in p16 expression", "setting": "p16^INK4a protein; MCF-7/AR, transfected 4 days earlier (FIG. 19B)", "value": "maintained"}, {"measurement": "reduction of p16 protein level relative to control bcl-2 and GFP siRNA-transfected cells", "setting": "p16^INK4a protein; MCF-7 AR cells, 72 hours", "value": "approximately 10 fold"}]}
